Test results published in ChEMBL document CHEMBL1201862, “PubChem BioAssay data set” (2004).
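Interpolation was linear, between the two tested concentrations surrounding the appropriate level; five concentrations were tested over 48 hours in 96-well plates. GI50: concentration for 50% inhibition of growth.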 Calls of active or inactive are those of the source. Rule as the data show it: active = GI50 up to about 1.1 µM and inactive = higher. Square brackets hold non-standard residues; d marks the D form. Peptide text beside a SMILES is read from it. * marks the point of attachment. AllylGly = C=CC[CH](N)C(=O)O; Boc = CC(C)(C)OC(=O)*; OtBu = CC(C)(C)O*

How the values were obtained:
Assay in all cases: NCI anticancer screen, dose series, 48 h
SK-MEL-28 = system: SK-MEL-28
SK-OV-3 = system: SK-OV-3
PC-3 = system: PC-3
HCT-116 = system: HCT-116
NCI-H23 = system: NCI-H23
Hs-578T = system: Hs-578T
HOP-62 = system: HOP-62
NCI/ADR-RES = system: NCI/ADR-RES
MDA-MB-435 = system: MDA-MB-435
NCI-H460 = system: NCI-H460
HCT-15 = system: HCT-15
SR = system: SR
UACC-257 = system: UACC-257
SK-MEL-2 = system: SK-MEL-2
OVCAR-4 = system: OVCAR-4
OVCAR-3 = system: OVCAR-3
MDA-MB-231 = system: MDA-MB-231
ACHN = system: ACHN

SMILES | GI50 (SK-MEL-28) | GI50 (SK-OV-3) | GI50 (PC-3) | GI50 (HCT-116) | GI50 (NCI-H23) | GI50 (Hs-578T) | GI50 (HOP-62) | GI50 (NCI/ADR-RES) | GI50 (MDA-MB-435) | GI50 (NCI-H460) | GI50 (HCT-15) | GI50 (SR) | GI50 (UACC-257) | GI50 (SK-MEL-2) | GI50 (OVCAR-4) | GI50 (OVCAR-3) | GI50 (MDA-MB-231) | GI50 (ACHN)
CCCC(=O)Nc1cc(/C=C/C(=O)N2CC(CCl)c3c2cc(OC(C)=O)c2[nH]cc(C)c32)n(C)c1 (stereo not given) | 4.52e-05 µM (active) | 7.05e-05 µM (active) | 5.01e-05 µM (active) | < 2.5e-05 µM (active) | < 2.5e-05 µM (active) | 6.56e-05 µM (active) | 4.63e-05 µM (active) | 0.00024 µM (active) | 4.95e-05 µM (active) | < 2.5e-05 µM (active) | 0.000547 µM | < 2.5e-05 µM (active) | 2.97e-05 µM (active) | 5.92e-05 µM (active) | < 2.5e-05 µM (active) | < 2.5e-05 µM (active) | 6.44e-05 µM (active) | < 2.5e-05 µM (active)
O=C(O)CSc1n[nH]c(=O)[nH]c1=O | > 100 µM (inactive) | > 100 µM (inactive) | > 100 µM (inactive) | > 100 µM (inactive) | > 100 µM (inactive) | > 100 µM (inactive) | > 100 µM (inactive) | > 100 µM (inactive) | > 100 µM (inactive) | > 100 µM (inactive) | > 100 µM | > 100 µM (inactive) | – | > 100 µM (inactive) | > 100 µM (inactive) | 74.8 µM (inactive) | > 100 µM (inactive) | > 100 µM (inactive)
C=CC1(CBr)CCC(C(C)(C)Br)O1 (stereo not given) | 7.73 µM (inactive) | 14.5 µM (inactive) | 12 µM (inactive) | 6.64 µM (inactive) | 6.98 µM (inactive) | 12.6 µM (inactive) | 15.9 µM (inactive) | 10.1 µM (inactive) | 12.6 µM (inactive) | 13 µM (inactive) | 6.64 µM | 2.52 µM (inactive) | 13.7 µM (inactive) | 12.8 µM (inactive) | 14.3 µM (inactive) | 9.42 µM (inactive) | 13.2 µM (inactive) | 16.4 µM (inactive)
COc1cc(OC)c2c(c1OC)OCC(Cc1ccc(O)cc1)C2=O (stereo not given) | > 25 µM (inactive) | > 25 µM (inactive) | > 25 µM (inactive) | > 25 µM (inactive) | > 25 µM (inactive) | > 25 µM (inactive) | > 25 µM (inactive) | > 25 µM (inactive) | > 25 µM (inactive) | > 25 µM (inactive) | > 25 µM | > 25 µM (inactive) | > 25 µM (inactive) | > 25 µM (inactive) | > 25 µM (inactive) | 21 µM (inactive) | > 25 µM (inactive) | > 25 µM (inactive)
C[C@@H]1S[C@H](c2c(F)cccc2Cl)n2c1nc1ccccc12 | 13.7 µM (inactive) | 28.4 µM (inactive) | 6.84 µM (inactive) | 4.49 µM (inactive) | 14.5 µM (inactive) | 20.6 µM (inactive) | 15.3 µM (inactive) | 14.1 µM (inactive) | 12.6 µM (inactive) | – | 6.76 µM | 7.23 µM (inactive) | 14.1 µM (inactive) | 15.7 µM (inactive) | 18.5 µM (inactive) | 14.9 µM (inactive) | 11.5 µM (inactive) | 27.9 µM (inactive)
C=CCC(NC(=O)C(CC(=O)OC(C)(C)C)NC(=O)OC(C)(C)C)C(=O)OC (stereo not given) (Boc-Asp(OtBu)-[AllylGly]-OMe; configuration not given here) | 47.4 µM (inactive) | > 100 µM (inactive) | > 100 µM (inactive) | 71.1 µM (inactive) | > 94.8 µM (inactive) | > 100 µM (inactive) | > 64.1 µM (inactive) | > 100 µM (inactive) | > 53.2 µM (inactive) | > 100 µM (inactive) | > 100 µM | 37.9 µM (inactive) | 24 µM (inactive) | 73.3 µM (inactive) | > 100 µM (inactive) | 24.7 µM (inactive) | > 100 µM (inactive) | > 100 µM (inactive)
C[N+](C)(C)[BH-](Br)C(O)O (stereo not given) | > 100 µM (inactive) | – | > 100 µM (inactive) | > 100 µM (inactive) | > 100 µM (inactive) | > 100 µM (inactive) | > 100 µM (inactive) | > 100 µM (inactive) | > 100 µM (inactive) | > 100 µM (inactive) | > 100 µM | > 100 µM (inactive) | > 100 µM (inactive) | > 100 µM (inactive) | > 100 µM (inactive) | > 100 µM (inactive) | > 100 µM (inactive) | > 100 µM (inactive)
O=S(=O)(NC(c1ccccc1)(c1cc2ccccc2[nH]1)c1cc2ccccc2n1S(=O)(=O)c1ccccc1)c1ccccc1 (stereo not given) | > 100 µM (inactive) | 0.292 µM (active) | > 100 µM (inactive) | > 100 µM (inactive) | > 100 µM (inactive) | > 100 µM (inactive) | > 100 µM (inactive) | > 100 µM (inactive) | > 100 µM (inactive) | > 100 µM (inactive) | > 100 µM | > 100 µM (inactive) | > 100 µM (inactive) | 28.9 µM (inactive) | > 100 µM (inactive) | 91.8 µM (inactive) | > 100 µM (inactive) | –
COc1ccc(Nc2nc3cc(C(F)(F)F)ccc3nc2C(=O)O)cc1 | 31.7 µM (inactive) | – | 20.4 µM (inactive) | 15.5 µM (inactive) | 14.4 µM (inactive) | 21.1 µM (inactive) | 14.9 µM (inactive) | 23.1 µM (inactive) | 22.5 µM (inactive) | 23.9 µM (inactive) | 16.6 µM | 11.1 µM (inactive) | 19.1 µM (inactive) | 14.5 µM (inactive) | 27.3 µM (inactive) | 12.6 µM (inactive) | 31.6 µM (inactive) | 28.3 µM (inactive)
CCOC(=O)CN1C(=O)c2ccc(NC(=O)C(=O)O)cc2S1(=O)=O | > 100 µM (inactive) | > 100 µM (inactive) | > 100 µM (inactive) | > 100 µM (inactive) | > 100 µM (inactive) | > 100 µM (inactive) | > 100 µM (inactive) | > 100 µM (inactive) | > 100 µM (inactive) | > 100 µM (inactive) | > 100 µM | > 100 µM (inactive) | > 100 µM (inactive) | > 100 µM (inactive) | > 100 µM (inactive) | – | > 100 µM (inactive) | > 100 µM (inactive)
CN1C(=O)C2C(=O)N(Cc3ccccc3)CC(=O)N2c2cccnc21 (stereo not given) | – | > 100 µM (inactive) | > 100 µM (inactive) | > 100 µM (inactive) | > 100 µM (inactive) | > 100 µM (inactive) | > 100 µM (inactive) | > 100 µM (inactive) | > 100 µM (inactive) | > 100 µM (inactive) | > 100 µM | > 100 µM (inactive) | > 100 µM (inactive) | > 100 µM (inactive) | > 100 µM (inactive) | > 100 µM (inactive) | > 100 µM (inactive) | > 100 µM (inactive)
CC(=O)c1nc2ccccc2n1CC(=O)c1ccc(Cl)cc1 | 8.83 µM (inactive) | 28.1 µM (inactive) | 5.45 µM (inactive) | 2.01 µM (inactive) | 7.64 µM (inactive) | 17.2 µM (inactive) | 5.85 µM (inactive) | 2.94 µM (inactive) | 2.09 µM (inactive) | 2.45 µM (inactive) | 5.2 µM | 4.84 µM (inactive) | 5.68 µM (inactive) | 14.7 µM (inactive) | 5.26 µM (inactive) | 4.37 µM (inactive) | 2.79 µM (inactive) | –
COc1cc(C2c3cc4c(cc3CC3COC(=O)N32)OCO4)cc(OC)c1OC (stereo not given) | 5.05 µM (inactive) | 3.03 µM (inactive) | 1.99 µM (inactive) | 2.72 µM (inactive) | – | 2.52 µM (inactive) | 4.12 µM (inactive) | 1.58 µM (inactive) | 0.404 µM (active) | 4 µM (inactive) | 3.08 µM | 1.57 µM (inactive) | 26.1 µM (inactive) | 6.73 µM (inactive) | 14.1 µM (inactive) | 1.93 µM (inactive) | 3.71 µM (inactive) | 12.8 µM (inactive)
CCOC(=O)c1nc2ccccc2nc1Oc1cc(OC)cc(OC)c1 | > 100 µM (inactive) | > 100 µM (inactive) | > 100 µM (inactive) | > 100 µM (inactive) | – | 27.9 µM (inactive) | 69.7 µM (inactive) | > 100 µM (inactive) | > 100 µM (inactive) | 39.5 µM (inactive) | > 100 µM | > 100 µM (inactive) | > 100 µM (inactive) | > 100 µM (inactive) | 8.49 µM (inactive) | > 100 µM (inactive) | > 100 µM (inactive) | > 100 µM (inactive)
NS(=O)(=O)c1ccc(NC(=O)c2cc([N+](=O)[O-])cc([N+](=O)[O-])c2)cc1 | > 100 µM (inactive) | 80.4 µM (inactive) | 21.1 µM (inactive) | 45 µM (inactive) | 41.4 µM (inactive) | 76.4 µM (inactive) | > 100 µM (inactive) | > 100 µM (inactive) | 17.7 µM (inactive) | 31.8 µM (inactive) | 44.3 µM | 63.1 µM (inactive) | 12.8 µM (inactive) | 34.1 µM (inactive) | 27.7 µM (inactive) | 25.8 µM (inactive) | 39.4 µM (inactive) | –
CN(C)Cc1cc(C(=O)/C=C/c2ccc(/C=C/C(=O)c3cc(CN(C)C)c(O)c(CN(C)C)c3)cc2)cc(CN(C)C)c1O | 29 µM (inactive) | – | 15.1 µM (inactive) | 15.2 µM (inactive) | 18.7 µM (inactive) | 58.2 µM (inactive) | 26.8 µM (inactive) | > 100 µM (inactive) | 24 µM (inactive) | – | 29.6 µM | 22.8 µM (inactive) | 24.8 µM (inactive) | 20.2 µM (inactive) | 50.6 µM (inactive) | 32.1 µM (inactive) | 20.3 µM (inactive) | 23.4 µM (inactive)
